Experiments:
WT-PAH [1] = target: T1, WT-PAH (Homo sapiens, UniProt P00439); assay: Primary screen (READ): ligand-induced stabilization of PAH activity in 8 M urea, Tyr formation by CE-UV; type: biochemical; settings: 8 M urea, ligand 20 μM; ligand-free enzyme (7±0.5) %
T1 construct: made in house; the paragraph itself says 'eukaryotic cell cultures' (pMAL vector, Martinez laboratory, University of Bergen)
T1 sequence (P00439 1-452): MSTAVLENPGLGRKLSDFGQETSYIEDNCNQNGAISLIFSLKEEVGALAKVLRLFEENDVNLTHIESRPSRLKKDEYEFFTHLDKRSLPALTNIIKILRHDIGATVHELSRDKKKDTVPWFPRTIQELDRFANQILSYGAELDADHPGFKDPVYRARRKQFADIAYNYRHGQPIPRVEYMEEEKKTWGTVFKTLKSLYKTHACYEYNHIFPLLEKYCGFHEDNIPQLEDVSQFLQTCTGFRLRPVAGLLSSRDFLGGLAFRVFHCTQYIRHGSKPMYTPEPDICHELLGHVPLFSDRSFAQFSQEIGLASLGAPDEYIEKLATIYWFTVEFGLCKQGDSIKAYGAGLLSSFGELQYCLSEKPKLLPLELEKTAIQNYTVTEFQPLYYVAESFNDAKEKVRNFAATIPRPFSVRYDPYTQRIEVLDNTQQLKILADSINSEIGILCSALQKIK
Procedure: Tetrameric human phenylalanine hydroxylase (PAH) enzyme kinetic assays were performed off-line under standardized conditions prior to quantification of Tyr formation by CE with UV detection. Enzyme assays were performed by first mixing together Phe (1 mM), catalase (100 nM) and PAH (0.25 μM/subunit) in a reaction buffer (20 mM HEPES and 200 mM NaCl, pH 7.0) that were equilibrated at 25° C. for 4 min. Then, ferrous (Fe^2+) ammonium sulfate (100 μM) was added to the solution for 1 min and the reaction was subsequently initiated by addition of BH4 ([…]) with DTT (5 mM) using a total volume of 100 μL. The reaction mixture was then vortexed for 60 s followed by sonication for 2 min prior to centrifugation for 10 s at 4 g and storage in a refrigerator (+4° C.). An aliquot (20 μL) was withdrawn from the quenched enzyme reaction and placed in a micro vial containing Me-Tyr as IS (100 μM) prior to CE analysis. The stability of the quenched enzyme reaction was confirmed by intermittent analysis of PAH activity over 6 h at room temperature, and no significant changes in the Tyr/IS or Phe/Tyr response ratio were measured. Enzymatic reactions were performed for both WT-PAH and two PAH mutants by pre-equilibrating each ligand for 10 min prior to addition of ferrous ion and BH4/DDT as described in enzyme reaction protocol in order to assess for ligand-induced PAH inhibition or activation.
Unlike thermal stability assays that can induce protein aggregation, chemical denaturants are more suitable as perturbants to promote unfolding and enzyme inactivation while solubilizing multimeric proteins. In this context, restoration of enzyme activity upon denaturation (READ) was first introduced to characterize PCs that stabilize yet enhance the activity of a lysosomal enzyme, β-glucocerebrosidase (GCase). Herein, READ was modified, further optimized and validated for primary screening of PCs for the cytosolic enzyme (PAH) using a chemical library containing structurally unique compounds with drug-like activity. For instance, the primary screen was used to measure ligand-induced stabilization of PAH by extrinsic small molecules that impart greater resistance to urea unfolding as compared to ligand-free apo-enzyme conditions. PAH activity was first examined as a function of urea concentration (0 to 8 M) and pre-equilibration time (10 min to 2 hr) in order to determine optimum conditions where residual enzyme activity was largely attenuated below 10% due to protein unfolding. Protein unfolding was performed in triplicate offline with the enzyme reaction buffer (20 mM HEPES and 200 mM NaCl, pH 7.0) using tetrameric human PAH (1 μM and/or 0.1 μM) or mutant PAH (1 μM and/or 0.1 μM) incubated 10 min in 0 M or 8 M urea in the presence or absence of ligand (20 μM). Dose-response studies (0, 2.0 and 20 μM) were subsequently performed in triplicate on screen-positive compounds using re-synthesized ligands in order to further validate initial screen results. In all cases, quenched enzyme reactions were processed as described previously prior to CE analysis. PAH activity measurements based on Tyr formation at 8M urea with the presence or absence of PC were normalized to 0 M urea for each aliquot enzyme reaction to minimize long-term variation, which also enables direct comparison of the ligand-induced stabilization activity under denaturing conditions (8M urea) while confirming inhibition and activation effects for ligands under native conditions (0 M urea).

PAH [2] = target: T2, PAH (Mus musculus, UniProt P16331); settings: cited from earlier work
T2 construct: inducing a 2-fold enhancement in PAH activity in WT mouse liver; host or cells: liver of WT mice
T2 sequence (P16331 1-453): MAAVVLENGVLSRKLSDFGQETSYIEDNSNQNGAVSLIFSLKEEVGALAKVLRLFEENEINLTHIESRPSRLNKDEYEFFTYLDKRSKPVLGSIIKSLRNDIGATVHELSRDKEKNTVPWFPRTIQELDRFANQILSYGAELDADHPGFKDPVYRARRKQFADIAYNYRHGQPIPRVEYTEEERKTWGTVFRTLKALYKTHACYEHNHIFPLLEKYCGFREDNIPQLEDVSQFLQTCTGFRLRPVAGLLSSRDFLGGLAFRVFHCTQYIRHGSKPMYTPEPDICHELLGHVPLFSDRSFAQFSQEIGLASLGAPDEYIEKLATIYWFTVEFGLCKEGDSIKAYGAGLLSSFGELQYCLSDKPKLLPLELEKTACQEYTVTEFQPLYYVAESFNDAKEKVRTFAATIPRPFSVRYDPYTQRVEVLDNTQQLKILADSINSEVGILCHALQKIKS

PAH [3] = target: T3, PAH (Homo sapiens, UniProt P00439); settings: 100 μM; cited from earlier work
T3 sequence (P00439 1-452): T1 sequence (P00439 1-452)

WT-PAH [4] = target: T1, WT-PAH; assay: Chaperone (refolding) assay: PAH activity after dilution from 6.0 M to 0.5 M GndCl; type: biochemical; settings: ligand 20 μM
Procedure: For instance, a recovery of 50% of residual enzyme activity was achieved without ligand when PAH was incubated in 8.0 M urea after its dilution to 0.5 M urea to trigger protein refolding. In order to further reduce enzyme reversibility, the recovery of PAH activity was subsequently assessed when it was incubated using 6.0 M GndCl for 10 min and subsequently diluted to 0.5 M GndCl in the presence or absence of screen-positive ligands (20 μM) in enzyme reaction buffer with PAH activity measurements performed by CE as described previously. […] Two lead compounds and several analogs of SA were subsequently tested using two different mutants of PAH (I65T and R261Q) without chemical denaturants after the two-tiered screening.

| PAH residual activity (% of WT-PAH) (WT-PAH [1]) | increase in WT-PAH activity after refolding relative to ligand-free apo-PAH (WT-PAH [4]) | SMILES | enhancement in PAH activity in WT mouse liver (PAH [2]) | shift of denaturation temperature relative to ligand-free enzyme (PAH [3]) |
| --- | --- | --- | --- | --- |
| 19% | about 5 fold | Nc1c(-c2ccc3ccccc3n2)c2ccc([N+](=O)[O-])cc2c(=O)n1Cc1ccccc1 [compound III, 3-amino-2-benzyl-7-nitro-4-(2-quinolyl)-1,2-dihydroisoquinolin-1-one] | 2 fold | greater than 14 °C |
| 9% | ~1.5 fold | Cc1ccnc(-n2c(=S)[nH]c3sc(C)c(C)c3c2=O)c1 [compound IV, 5,6-dimethyl-3-(4-methyl-2-pyridinyl)-2-thioxo-2,3-dihydrothieno[2,3-d] pyrimidin-4(1H)-one] | 2 fold | > 7 °C |
